Data reported in patent US10301317B2, “Inhibitors of ERK and methods of use” (Kura Oncology, Inc., priority 2013, dated 2019).

Assays:
Type in all cases: cell-based
[1] = tested on: phospho-p90 RSK (RSK1 Thr359/Ser363) in A375 (Braf V600E) cells; assay: Phospho-p90 RSK ELISA using A375 (Braf V600E) cells; conditions: Homo sapiens, A-375, 2 hours compound treatment, read-out: Cellular Phospho-p90RSK IC50
[2] = tested on: A375 cells; assay: Tumor cell line proliferation assay (CellTiter Glo), A375; conditions: Homo sapiens, A-375, 96 h, read-out: A375 (V599E) Cell Proliferation IC50
[3] = tested on: H358 (Kras, G12C) cells; assay: Tumor cell line proliferation assay (CellTiter Glo), H358; conditions: Homo sapiens, NCI-H358, 96 hours

Row | SMILES | IC50 [1] | IC50 [2] | IC50 [3]
1 | Cc1cc(-c2n[nH]c3cc4c(cc23)CN(C2CN(CC3CCCC3)CC(F)(F)C2)C(=O)N4)ccn1 (centres unmarked) [Example 201] | > 1000 nM | > 1000 nM | > 1000 nM
2 | Cc1cc(-c2n[nH]c3cc4c(cc23)CN(C2CCCCC2)C(=O)N4)ccn1 [Example 204] | 250 to 1000 nM | 250 to 1000 nM | > 1000 nM
3 | Cc1cc(-c2n[nH]c3cc4c(cc23)CN(C2CCNCC2)C(=O)N4)ccn1 [Example 34] | > 1000 nM | > 1000 nM | > 1000 nM
4 | Cc1cc(-c2n[nH]c3cc4[nH]c(=O)c(C(O)c5ccccc5)cc4cc23)ccn1 (centres unmarked) [Example 221] | 250 to 1000 nM | 250 to 1000 nM | 250 to 1000 nM
5 | Cc1cc(-c2n[nH]c3cc4c(cc23)CN([C@@H]2CCCOC2)C(=O)N4)ccn1 [Example 49] | 250 to 1000 nM | > 1000 nM | > 1000 nM
6 | Cc1cc(-c2n[nH]c3cc4c(cc23)CN([C@@H]2CCCN(C)C2)C(=O)N4)ccn1 [Example 33] | > 1000 nM | > 1000 nM | > 1000 nM
7 | Cc1cc(-c2n[nH]c3cc4[nH]c(=O)n(Cc5ccccc5)c(=O)c4cc23)ccn1 [Example 27] | 250 to 1000 nM | > 1000 nM | > 1000 nM
8 | Cc1cc(-c2n[nH]c3cc4c(cc23)CN([C@@H]2CCCN(CC3CCCC3)C2)C(=O)N4)ccn1 [Example 138] | 250 to 1000 nM | 250 to 1000 nM | > 1000 nM
9 | COc1ccc(-c2n[nH]c3cc4c(cc23)CN(Cc2ccc(F)c(Cl)c2)C(=O)N4)cn1 [Example 36] | 250 to 1000 nM | 250 to 1000 nM | 250 to 1000 nM
10 | Cc1cc(-c2n[nH]c3cc4c(cc23)CN([C@@H]2CCN(c3ccc(F)cn3)C2)C(=O)N4)ccn1 [Example 257] | 250 to 1000 nM | > 1000 nM | 
11 | Cc1cc(-c2n[nH]c3cc4c(cc23)CN([C@H]2CN(Cc3ccccc3)CC(F)(F)C2)C(=O)N4)ccn1 [Example 264] | ≤ 250 nM | ≤ 250 nM | 
12 | Cc1cc(-c2n[nH]c3cc4c(cc23)CN([C@@H]2CN(CC(F)(F)F)C[C@H]2c2cccs2)C(=O)N4)ccn1 (mixture of isomers) [Example 321] | ≤ 250 nM | 250 to 1000 nM | 
13 | COc1ncc(-c2n[nH]c3cc4c(cc23)CN([C@@H]2CCCN(Cc3ccccc3)C2)C(=O)N4)cn1 [Example 104] | ≤ 250 nM | ≤ 250 nM | 
14 | Cc1cc(-c2n[nH]c3cc4c(cc23)CN(CC2CCCC2)C(=O)N4)ccn1 [Example 212] | ≤ 250 nM | ≤ 250 nM | 
15 | [2H]C([2H])(c1ccccc1)N1CCC[C@@H](N2Cc3cc4c(-c5ccnc(C)c5)n[nH]c4cc3NC2=O)C1 [Example 148] | ≤ 250 nM | ≤ 250 nM | 
16 | Cc1cc(-c2n[nH]c3cc4c(cc23)CN([C@@H]2CCCN(Cc3cc(F)ccc3F)C2)C(=O)N4)ccn1 [Example 187] | ≤ 250 nM | ≤ 250 nM | 
17 | Cc1cc(-c2n[nH]c3cc4c(cc23)CN([C@@H]2CN(C)C[C@H]2c2ccc(F)cc2)C(=O)N4)cc(C)n1 (racemic) [Example 305] | ≤ 250 nM | ≤ 250 nM | 
18 | Cc1ncc(-c2n[nH]c3cc4c(cc23)CN([C@@H]2CCCN(Cc3ccccc3)C2)C(=O)N4)cn1 [Example 292] | ≤ 250 nM | ≤ 250 nM | 

Row | SMILES | IC50 [1] | IC50 [2] | IC50 [3]
19 | Cc1cc(-c2n[nH]c3cc4c(cc23)CN([C@H]2CCN(Cc3ccccc3)C2)C(=O)N4)ccn1 [Example 301] | ≤ 250 nM | 250 to 1000 nM | 
20 | Cc1cc(-c2n[nH]c3cc4c(cc23)CN([C@@H]2CCN(CCc3ccccc3)C2)C(=O)N4)ccn1 [Example 153] | ≤ 250 nM | ≤ 250 nM | 
21 | COc1ccc(-c2n[nH]c3cc4c(cc23)CN([C@@H]2CCCN(Cc3ccc(F)cc3F)C2)C(=O)N4)cn1 [Example 273] | ≤ 250 nM | ≤ 250 nM | 
22 | COc1cc(-c2n[nH]c3cc4c(cc23)CN([C@@H]2CCCN(Cc3ccccc3)C2)C(=O)N4)ccn1 [Example 270] | ≤ 250 nM | ≤ 250 nM | 
23 | Cc1cc(-c2n[nH]c3cc4c(cc23)CN([C@@H]2CCCN(C(C)C(F)(F)F)C2)C(=O)N4)ccn1 (some centres unmarked) [Example 216] | ≤ 250 nM | 250 to 1000 nM | 
24 | Cc1cc(-c2n[nH]c3cc4c(cc23)CN([C@@H]2CCCN(Cc3cccc(F)c3)C2)C(=O)N4)ccn1 [Example 184] | ≤ 250 nM | ≤ 250 nM | 
25 | Cc1cc(-c2n[nH]c3cc4c(cc23)CN([C@@H]2CCCN(Cc3ccccc3Cl)C2)C(=O)N4)ccn1 [Example 158] | ≤ 250 nM | ≤ 250 nM | 
26 | Cc1cc(-c2n[nH]c3cc4c(cc23)CN([C@@H]2CN(CC(F)(F)F)C[C@H]2C(F)(F)F)C(=O)N4)ccn1 [Example 331] | 250 to 1000 nM | 250 to 1000 nM | 
27 | Cc1cc(-c2n[nH]c3cc4c(cc23)CN(Cc2cc(F)cc(F)c2)C(=O)N4)cc(C)n1 [Example 225] | ≤ 250 nM | ≤ 250 nM | 
28 | CC(c1ccccc1)c1cc2cc3c(-c4ccnc(N5CCOCC5)c4)n[nH]c3cc2[nH]c1=O (centres unmarked) [Example 325] | ≤ 250 nM | ≤ 250 nM | 
29 | Cc1cc(-c2n[nH]c3cc4c(cc23)CN([C@@H]2CCCN(Cc3cccc(F)c3F)C2)C(=O)N4)ccn1 [Example 185] | ≤ 250 nM | ≤ 250 nM | 
30 | COc1ncc(-c2n[nH]c3cc4[nH]c(=O)c(C5CCCN(Cc6ccccc6)C5)cc4cc23)cn1 (centres unmarked) [Example 364] | ≤ 250 nM | ≤ 250 nM | 
31 | Cc1cc(-c2n[nH]c3cc4c(cc23)CN(C2CCC2)C(=O)N4)ccn1 [Example 243] | ≤ 250 nM | ≤ 250 nM | 
32 | Cc1cc(-c2n[nH]c3cc4c(cc23)CN([C@@H]2CN(C)C[C@H]2c2ccccc2)C(=O)N4)cc(C)n1 (racemic) [Example 248] | ≤ 250 nM | ≤ 250 nM | 
33 | Cc1cc(-c2n[nH]c3cc4c(cc23)CN([C@@H]2CN(CC(F)(F)F)C[C@H]2c2ccccc2F)C(=O)N4)ccn1 (racemic) [Example 311] | ≤ 250 nM | 250 to 1000 nM | 
34 | COc1ncc(-c2n[nH]c3cc4c(cc23)CN([C@@H]2CCCN(Cc3ccc(F)cc3F)C2)C(=O)N4)cn1 [Example 280] | ≤ 250 nM | ≤ 250 nM | 
35 | Cc1cc(-c2n[nH]c3cc4c(cc23)CN([C@@H]2CCCN(Cc3ccc(F)cc3)C2)C(=O)N4)ccn1 [Example 151] | > 1000 nM | ≤ 250 nM | 

Results, then the compound that gave them:

Row | IC50 [1] | IC50 [2] | IC50 [3] | SMILES
36 | ≤ 250 nM | 250 to 1000 nM | 250 to 1000 nM | O=C1Nc2cc3[nH]nc(-c4ccnnc4)c3cc2CN1[C@@H]1CCCN(Cc2ccccc2)C1 [Example 120]
37 | ≤ 250 nM | ≤ 250 nM | ≤ 250 nM | CCC(c1ccccc1)c1cc2cc3c(-c4ccnc(C)c4)n[nH]c3cc2[nH]c1=O (centres unmarked) [Example 64]
38 | ≤ 250 nM | 250 to 1000 nM | 250 to 1000 nM | Cc1cc(-c2n[nH]c3cc4c(cc23)CN([C@@H]2CCCN(C(C)c3ccc(F)cc3)C2)C(=O)N4)ccn1 (some centres unmarked) [Example 179]
39 | ≤ 250 nM | 250 to 1000 nM | 250 to 1000 nM | Cc1cc(-c2n[nH]c3cc4c(cc23)CN(C2CCCC2)C(=O)N4)ccn1 [Example 205]
40 | ≤ 250 nM | 250 to 1000 nM | 250 to 1000 nM | Cc1cc(-c2n[nH]c3cc4c(cc23)CN([C@@H]2CCCN(Cc3ccc(F)cn3)C2)C(=O)N4)ccn1 [Example 132]
41 | ≤ 250 nM | ≤ 250 nM | ≤ 250 nM | COc1ncc(-c2n[nH]c3cc4c(cc23)CN([C@@H]2CCCN(Cc3c(F)cccc3OC)C2)C(=O)N4)cn1 [Example 103]
42 | ≤ 250 nM | 250 to 1000 nM | 250 to 1000 nM | Cc1cc(-c2n[nH]c3cc4c(cc23)CN([C@@H]2CN(CC(F)(F)F)C[C@H]2c2ccccc2)C(=O)N4)ccn1 [Example 222]
43 | ≤ 250 nM | 250 to 1000 nM | 250 to 1000 nM | Cc1cc(-c2n[nH]c3cc4c(cc23)CN(C2CN(Cc3ccccc3)CC(F)(F)C2)C(=O)N4)ccn1 (centres unmarked) [Example 200]
44 | ≤ 250 nM | ≤ 250 nM | 250 to 1000 nM | COc1ncc(-c2n[nH]c3cc4c(cc23)CN(Cc2cccc(Cl)c2)C(=O)N4)cn1 [Example 68]
45 | ≤ 250 nM | ≤ 250 nM | ≤ 250 nM | Cc1cc(-c2n[nH]c3cc4c(cc23)CN([C@@H]2CCCN(Cc3ccccc3)C2)C(=O)N4)ccn1 [Example 63]
46 | ≤ 250 nM | 250 to 1000 nM | 250 to 1000 nM | Cc1cc(-c2n[nH]c3cc4c(cc23)CN([C@@H]2CCCN(CCC(F)(F)F)C2)C(=O)N4)ccn1 [Example 178]
47 | ≤ 250 nM | ≤ 250 nM | ≤ 250 nM | COc1ncc(-c2n[nH]c3cc4c(cc23)CN([C@@H]2CCCN(Cc3ccccc3F)C2)C(=O)N4)cn1 [Example 101]
48 | ≤ 250 nM | ≤ 250 nM | ≤ 250 nM | Cc1cc(-c2n[nH]c3cc4c(cc23)CN([C@@H]2CCCN(Cc3ccc(F)cc3F)C2)C(=O)N4)ccn1 [Example 196]
49 | ≤ 250 nM | ≤ 250 nM | 250 to 1000 nM | Cc1cc(-c2n[nH]c3cc4c(cc23)CN([C@@H]2CCCN(Cc3ccc(F)c(F)c3)C2)C(=O)N4)ccn1 [Example 190]
50 | ≤ 250 nM | 250 to 1000 nM | ≤ 250 nM | Cc1cc(-c2n[nH]c3cc4c(cc23)CN([C@@H]2CCCN(c3cccc(Cl)c3)C2)C(=O)N4)ccn1 [Example 174]
51 | ≤ 250 nM | 250 to 1000 nM | ≤ 250 nM | Cc1cc(-c2n[nH]c3cc4c(cc23)CN([C@H](C)c2cccc(Cl)c2)C(=O)N4)ccn1 [Example 35]
52 | ≤ 250 nM | 250 to 1000 nM | 250 to 1000 nM | Cc1cc(-c2n[nH]c3cc4c(cc23)CN([C@@H]2CCCN(CC3CCCCC3)C2)C(=O)N4)ccn1 [Example 141]
53 | ≤ 250 nM | 250 to 1000 nM | 250 to 1000 nM | COc1ncc(-c2n[nH]c3cc4c(cc23)CN(Cc2ccc(F)c(Cl)c2)C(=O)N4)cn1 [Example 37]
54 | ≤ 250 nM | ≤ 250 nM |  | CC(c1ccccc1)c1cc2cc3c(NC4CCOCC4)n[nH]c3cc2[nH]c1=O (centres unmarked) [Example 338]
55 | ≤ 250 nM | ≤ 250 nM |  | Cc1cc(-c2n[nH]c3cc4c(cc23)CN([C@@H]2CCCN(CC(F)(F)F)C2)C(=O)N4)cc(C)n1 [Example 244]
